Assay results as given in patent US20100168102A9, “Amide Derivatives as Kinase Inhibitors” (Devgen NV, priority 2005, published 2010).
Like-named read-outs stand apart in the source and are kept apart here.

How the values were obtained:
PKC epsilon = target: T1, PKC epsilon (Homo sapiens, UniProt Q02156); assay: Biochemical assay for PKC epsilon (fluorescence polarization, Protein Kinase C Assay Kit, Red); conditions: read-out: IC50 μM PKCε
T1 construct: purchased Invitrogen P2282
T1 sequence (Q02156 1-737): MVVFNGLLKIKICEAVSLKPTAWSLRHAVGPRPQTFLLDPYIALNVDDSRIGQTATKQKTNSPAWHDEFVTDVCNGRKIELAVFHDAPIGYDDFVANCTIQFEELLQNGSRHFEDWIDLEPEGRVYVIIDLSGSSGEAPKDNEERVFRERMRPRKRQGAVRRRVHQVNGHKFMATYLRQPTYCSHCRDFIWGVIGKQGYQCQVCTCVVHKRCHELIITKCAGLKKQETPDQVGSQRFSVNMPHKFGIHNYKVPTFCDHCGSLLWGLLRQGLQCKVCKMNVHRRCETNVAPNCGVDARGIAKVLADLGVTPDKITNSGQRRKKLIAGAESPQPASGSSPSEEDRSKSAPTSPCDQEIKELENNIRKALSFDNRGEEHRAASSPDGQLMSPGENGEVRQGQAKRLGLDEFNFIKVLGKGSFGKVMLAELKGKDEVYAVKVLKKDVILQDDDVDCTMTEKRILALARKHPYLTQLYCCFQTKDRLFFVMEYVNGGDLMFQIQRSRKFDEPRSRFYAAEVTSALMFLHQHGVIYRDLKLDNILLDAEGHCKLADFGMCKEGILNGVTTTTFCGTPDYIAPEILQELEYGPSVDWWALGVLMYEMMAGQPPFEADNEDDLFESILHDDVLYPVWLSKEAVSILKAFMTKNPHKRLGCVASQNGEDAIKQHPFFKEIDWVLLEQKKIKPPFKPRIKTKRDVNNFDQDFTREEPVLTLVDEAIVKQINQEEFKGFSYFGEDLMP
Outline: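 Read-out was fluorescence-polarization competition between phosphorylated substrate and a rhodamine PKC tracer for an anti-phosphoserine antibody, added with EDTA stop after an 80 min room-temperature kinase reaction with ATP and protein substrate (Mg2+/Ca2+ buffer). Enzyme (10 ng/ml final) was preincubated with compound for 30 min.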

human ROCKα/ROCKII mix = target: T2, human ROCKα/ROCKII mix (Homo sapiens, UniProt O75116); assay: Biochemical assay for ROCK (fluorescence polarization, ROCK IMAP Kit)
T2 construct: purchased Upstate Biotechnology 14-451

[1] = Table 2, compounds of Formula XIII

T2 sequence (O75116 11-552 limits assumed): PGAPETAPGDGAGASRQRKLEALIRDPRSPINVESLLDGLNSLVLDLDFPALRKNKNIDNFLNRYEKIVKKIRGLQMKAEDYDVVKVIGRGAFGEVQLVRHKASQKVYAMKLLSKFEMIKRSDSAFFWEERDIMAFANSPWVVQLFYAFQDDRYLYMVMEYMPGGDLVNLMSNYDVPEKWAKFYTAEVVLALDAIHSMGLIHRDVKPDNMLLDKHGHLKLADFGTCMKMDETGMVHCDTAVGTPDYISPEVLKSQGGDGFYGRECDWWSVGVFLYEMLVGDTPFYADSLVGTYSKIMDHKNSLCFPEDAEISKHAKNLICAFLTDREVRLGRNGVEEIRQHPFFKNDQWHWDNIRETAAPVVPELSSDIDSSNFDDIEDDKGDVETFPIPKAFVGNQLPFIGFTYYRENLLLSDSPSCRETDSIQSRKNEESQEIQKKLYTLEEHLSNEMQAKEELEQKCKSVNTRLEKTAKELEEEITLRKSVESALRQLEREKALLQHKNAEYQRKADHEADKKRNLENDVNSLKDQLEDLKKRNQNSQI

Row | Structure (SMILES) | IC50 (PKC epsilon) [µM] | IC50 (human ROCKα/ROCKII mix) [µM] | IC50 (PKC epsilon; [1]) [µM] | IC50 (human ROCKα/ROCKII mix; [1]) [µM]
1 | COc1cccc(NC(=O)NCC(N)c2ccc(C(=O)Nc3ccncc3)cc2)c1 (centres unmarked) [Compound 29, 4-{1-amino-2-[3-(3-methoxy-phenyl)-ureido]-ethyl}-N-pyridin-4-yl-benzamide] | 0.5 to 5 | 0.05 to 0.5 | – | –
2 | COc1ccc(NC(=O)NCC(N)c2ccc(C(=O)Nc3ccncc3)cc2)cc1 (centres unmarked) [Compound 30, 4-{1-amino-2-[3-(4-methoxy-phenyl)-ureido]-ethyl}-N-pyridin-4-yl-benzamide] | 0.5 to 5 | 0.05 to 0.5 | – | –
3 | CC(=O)NCC(N)c1ccc(C(=O)Nc2ccncc2)cc1 (centres unmarked) [Compound 31, 4-(2-Acetylamino-1-amino-ethyl)-N-pyridin-4-yl-benzamide] | – | – | 5 to 50 | 0.5 to 5
4 | CC(C)CCC(=O)NCC(N)c1ccc(C(=O)Nc2ccncc2)cc1 (centres unmarked) [Compound 36, 4-[1-Amino-2-(4-methyl-pentanoylamino)-ethyl]-N-pyridin-4-yl-benzamide] | – | – | 0.5 to 5 | 0.5 to 5
5 | NC(CNC(=O)C1CC1)c1ccc(C(=O)Nc2ccncc2)cc1 (centres unmarked) [Compound 39, 4-[1-Amino-2-(cyclopropanecarbonyl-amino)-ethyl]-N-pyridin-4-yl-benzamide] | – | – | 0.5 to 5 | 0.5 to 5
6 | CC1CC1C(=O)NCC(N)c1ccc(C(=O)Nc2ccncc2)cc1 (centres unmarked) [Compound 40, 4-{1-Amino-2-[(2-methyl-cyclopropanecarbonyl)-amino]-ethyl}-N-pyridin-4-yl-benzamide] | – | – | 0.5 to 5 | 0.5 to 5
7 | NC(CNC(=O)C1CCCCC1)c1ccc(C(=O)Nc2ccncc2)cc1 (centres unmarked) [Compound 43, 4-[1-Amino-2-(cyclohexanecarbonyl-amino)-ethyl]-N-pyridin-4-yl-benzamide] | – | – | 5 to 50 | 0.5 to 5
8 | N#CCC(=O)NCC(N)c1ccc(C(=O)Nc2ccncc2)cc1 (centres unmarked) [Compound 54, 4-[1-Amino-2-(2-cyano-acetylamino)-ethyl]-N-pyridin-4-yl-benzamide] | – | – | 0.5 to 5 | 0.05 to 0.5
9 | NC(CNC(=O)CNC(=O)c1ccco1)c1ccc(C(=O)Nc2ccncc2)cc1 (centres unmarked) [Compound 56, Furan-2-carboxylic acid ({2-amino-2-[4-(pyridin-4-ylcarbamoyl)-phenyl]-ethylcarbamoyl}-methyl)-amide] | – | – | 5 to 50 | 0.05 to 0.5
10 | COCCC(=O)NCC(N)c1ccc(C(=O)Nc2ccncc2)cc1 (centres unmarked) [Compound 58, 4-[1-Amino-2-(3-methoxy-propionylamino)-ethyl]-N-pyridin-4-yl-benzamide] | – | – | 5 to 50 | 0.5 to 5
11 | CC(C)=NOC(C)C(=O)NCC(N)c1ccc(C(=O)Nc2ccncc2)cc1 (centres unmarked) [Compound 59, 4-[1-Amino-2-(2-isopropylideneaminooxy-propionylamino)-ethyl]-N-pyridin-4-yl-benzamide] | – | – | 0.5 to 5 | 0.5 to 5
12 | Cc1ccsc1C=NOCC(=O)NCC(N)c1ccc(C(=O)Nc2ccncc2)cc1 (centres unmarked) [Compound 61, 4-{1-Amino-2-[2-(3-methyl-thiophen-2-ylmethyleneaminooxy)-acetylamino]-ethyl}-N-pyridin-4-yl-benzamide] | – | – | 5 to 50 | 0.5 to 5
13 | CCOCC(=O)NCC(N)c1ccc(C(=O)Nc2ccncc2)cc1 (centres unmarked) [Compound 62, 4-[1-amino-2-(2-ethoxy-acetylamino)-ethyl]-N-pyridin-4-yl-benzamide] | – | – | 5 to 50 | 0.5 to 5
14 | NC(CNC(=O)C1CCOC1)c1ccc(C(=O)Nc2ccncc2)cc1 (centres unmarked) [Compound 65, Tetrahydro-furan-3-carboxylic acid {2-amino-2-[4-(pyridin-4-ylcarbamoyl)-phenyl]-ethyl}-amide] | – | – | 0.5 to 5 | 0.5 to 5

More lines, now with the values ahead:

Row | IC50 (PKC epsilon) [µM] | IC50 (human ROCKα/ROCKII mix) [µM] | IC50 (PKC epsilon; [1]) [µM] | IC50 (human ROCKα/ROCKII mix; [1]) [µM] | Structure (SMILES)
15 | 0.5 to 5 | 0.05 to 0.5 | – | – | NC(CNC(=O)Nc1cccc2ccccc12)c1ccc(C(=O)Nc2ccncc2)cc1 (centres unmarked) [Compound 28, 4-[1-amino-2-(3-naphtalen-1-yl-ureido)-ethyl]-N-pyridin-4-yl-benzamide]
16 | – | – | 0.5 to 5 | 0.5 to 5 | CCCC(=O)NCC(N)c1ccc(C(=O)Nc2ccncc2)cc1 (centres unmarked) [Compound 32, 4-(1-Amino-2-butyrylamino-ethyl)-N-pyridin-4-y-benzamide]
17 | – | – | 0.5 to 5 | 0.5 to 5 | CCCCC(=O)NCC(N)c1ccc(C(=O)Nc2ccncc2)cc1 (centres unmarked) [Compound 33, 4-(1-Amino-2-pentanoylamino-ethyl)-N-pyridin-4-yl-benzamide]
18 | – | – | 0.5 to 5 | 0.5 to 5 | CC(C)CC(=O)NCC(N)c1ccc(C(=O)Nc2ccncc2)cc1 (centres unmarked) [Compound 34, 4-[1-Amino-2-(3-methyl-butyrylamino)-ethyl]-N-pyridin-4-yl-benzamide]
19 | – | – | 0.5 to 5 | 0.5 to 5 | CCC(C)C(=O)NCC(N)c1ccc(C(=O)Nc2ccncc2)cc1 (centres unmarked) [Compound 35, 4-[1-Amino-2-(2-methyl-butyrylamino)-ethyl]-N-pyridin-4-yl-benzamide]
20 | – | – | 0.5 to 5 | 0.5 to 5 | NC(CNC(=O)C1CCC1)c1ccc(C(=O)Nc2ccncc2)cc1 (centres unmarked) [Compound 41, 4-[1-Amino-2-(cyclobutanecarbonyl-amino)-ethyl]-N-pyridin-4-yl-benzamide]
21 | – | – | 0.5 to 5 | 0.5 to 5 | NC(CNC(=O)C1CCCC1)c1ccc(C(=O)Nc2ccncc2)cc1 (centres unmarked) [Compound 42, 4-[1-Amino-2-(cyclopentanecarbonyl-amino)-ethyl]-N-pyridin-4-yl-benzamide]
22 | – | – | 0.5 to 5 | 0.5 to 5 | NC(CNC(=O)CC1CC1)c1ccc(C(=O)Nc2ccncc2)cc1 (centres unmarked) [Compound 46, 4-[1-Amino-2-(2-cycopropyl-acetylamino)-ethyl]-N-pyridin-4-yl-benzamide]
23 | – | – | 0.5 to 5 | 0.5 to 5 | NC(CNC(=O)CC1CCCC1)c1ccc(C(=O)Nc2ccncc2)cc1 (centres unmarked) [Compound 47, 4-[1-Amino-2-(2-cyclopentyl-acetylamino)-ethyl]-N-pyridin-4-yl-benzamide]
24 | – | – | 0.5 to 5 | 0.05 to 0.5 | NC(CNC(=O)CC1C=CCC1)c1ccc(C(=O)Nc2ccncc2)cc1 (centres unmarked) [Compound 48, 4-[1-Amino-2-(2-cyclopent-2-enyl-acetylamino)-ethyl]-N-pyridin-4-yl-benzamide]
25 | – | – | 0.5 to 5 | 0.05 to 0.5 | NC(CNC(=O)CC1Cc2ccccc2C1)c1ccc(C(=O)Nc2ccncc2)cc1 (centres unmarked) [Compound 49, 4-[1-Amino-2-(2-indan-2-yl-acetylamino)-ethyl]-N-pyridin-4-yl-benzamide]
26 | – | – | 0.5 to 5 | 0.5 to 5 | NC(CNC(=O)CC1CCCCC1)c1ccc(C(=O)Nc2ccncc2)cc1 (centres unmarked) [Compound 50, 4-[1-Amino-2-(2-cyclohexyl-acetylamino)-ethyl]-N-pyridin-4-yl-benzamide]
27 | – | – | 0.5 to 5 | 0.05 to 0.5 | NC(CNC(=O)CCC1CCCC1)c1ccc(C(=O)Nc2ccncc2)cc1 (centres unmarked) [Compound 51, 4-[1-Amino-2-(3-cyclopentyl-propionylamino)-ethyl]-N-pyridin-4-yl-benzamide]
28 | – | – | 0.5 to 5 | 0.05 to 0.5 | NC(CNC(=O)CCC1CCCCC1)c1ccc(C(=O)Nc2ccncc2)cc1 (centres unmarked) [Compound 52, 4-[1-Amino-2-(3-cyclohexyl-propionylamino)-ethyl]-N-pyridin-4-yl-benzamide]
29 | – | – | 5 to 50 | 0.5 to 5 | CN(C)CCCC(=O)NCC(N)c1ccc(C(=O)Nc2ccncc2)cc1 (centres unmarked) [Compound 53, 4-[1-Amino-2-(4-dimethylamino-butyrylamino)-ethyl]-N-pyridin-4-yl-benzamide]
30 | – | – | 5 to 50 | 0.05 to 0.5 | NC(CNC(=O)CNC(=O)c1ccccc1)c1ccc(C(=O)Nc2ccncc2)cc1 (centres unmarked) [Compound 55, 4-[1-Amino-2-(2-benzoylamino-acetylamino)-ethyl]-N-pyridin-4-yl-benzamide]
31 | – | – | 5 to 50 | 0.5 to 5 | COCC(=O)NCC(N)c1ccc(C(=O)Nc2ccncc2)cc1 (centres unmarked) [Compound 57, 4-[1-Amino-2-(2-methoxy-acetylamino)-ethyl]-N-pyridin-4-yl-benzamide]
32 | – | – | 0.5 to 5 | 0.05 to 0.5 | CC(=NOCC(=O)NCC(N)c1ccc(C(=O)Nc2ccncc2)cc1)c1ccccc1 (centres unmarked) [Compound 60, 4-{1-Amino-2-[2-(1-phenyl-ethylideneaminooxy)-acetylamino]-ethyl}-N-pyridin-4-yl-benzamide]
33 | – | – | 0.5 to 5 | 0.05 to 0.5 | CCSCC(=O)NCC(N)c1ccc(C(=O)Nc2ccncc2)cc1 (centres unmarked) [Compound 63, 4-[1-amino-2-(2-ethylsulfanyl-acetylamino)-ethyl]-N-pyridin-4-yl-benzamide]
34 | – | – | 5 to 50 | 0.5 to 5 | NC(CNC(=O)CSc1ncccn1)c1ccc(C(=O)Nc2ccncc2)cc1 (centres unmarked) [Compound 64, 4-{1-amino-2-[2-(pyrimidin-2-ylsulfanyl)-acetylamino]-ethyl}-N-pyridin-4-yl-benzamide]
